Data reported in US6372783B1, “Enantiomeric compounds for treatment of cardiac arrhythmias and methods of use” (Aryx Therapeutics, priority 1999, dated 2002).

Legend:
[1] = system: Male Sprague-Dawley rats; assay: Anti-arrhythmic activity in anesthetized rats (benzene/adrenaline challenge; VPB, heart rate, EKG intervals); type: in vivo, rat; settings: for PR interval / QRS interval / QT interval / Heart rate (beats/minute) / Inhibition of tachycardia / Number of VPB / Inhibition of VPB: isolated enantiomer as compared to respective racemate; for PR interval / QRS interval / QT interval: EKG; for Heart rate (beats/minute) / Inhibition of tachycardia: adrenaline injection; for Number of VPB / Inhibition of VPB: benzene/adrenaline challenge; for Inhibition of VPB: 4 mg/kg i.v. then 12 mg/kg/h for 2 hours; for VPB-inhibiting activity at the end of the washout period: time 180 min; for inhibition of the formation of ventricular premature beats (VPB) during drug administration: whole period of drug administration (time 0 to 120 min); for protection against adrenaline-induced tachyarrhythmia / tachycardia (heart rate): drug administered time 0 to 120 minutes
Method: Anti-arrhythmic Activity in Anesthetized Rats.
Male Sprague-Dawley rats with body weights of 410±30 g (Harlan Sprague Dawley Inc., Indianapolis, Ind.), were anesthetized with sodium pentobarbital (50 mg/kg i.p.—Butler Co., Columbus, Ohio). The skin from the neck area was removed and the jugular veins on both sides were cleared of connective tissue. Both jugular veins and the left carotid artery were isolated, and the latter tied up cranially with a surgical silk (ETHICON 4-0, Ethicon Inc., Australia). A plastic catheter ([…] 19 ga, Vecton Dickinson, Sandy, Utah), filled with a solution containing 10% sodium heparin (Elkins-Sinn Inc., Cherry Hill, N.J.) in normal saline (100 U/ml sodium heparin), was introduced into the artery and fixed with surgical silk.
The catheter was connected to a pressure transducer (OHMEDA P23-XL, Ohmeda Medical Devices Division Inc., Madison, Wis.), filled with the same heparinized 0.9% NaCl solution, to register beat-to-beat arterial pressure. Needle electrodes were inserted s.c., and together with the pressure transducer, were joined to a GOULD TA 2000 recorder. Leads II, aVF and intraarterial blood pressure were monitored simultaneously throughout the experiments and recorded at certain intervals at 50 and 200 mm/sec paper speed.
The surgery was completed with an incision on the trachea where a short plastic tubing was placed and the animal was connected to a rodent-model ventilator (HARVARD Model 683, Harvard Apparatus, Inc., Holliston, Mass.). The animals were ventilated in a controlled way, depending on their spontaneous breathing frequency (55-75/min).
Drug administrations were carried out through i.v. catheters (TERUMO 24 GA*¾″, Terumo Medical Corp., Elkton, Md.) inserted into both jugular veins. The left side was used for drug infusions by means of a syringe pump (SAGE INSTRUMENTS, Model 341B, Orion Res. Inc., Boston, Mass.), and the right side was used for adrenaline injections. The experiments were started after at least 15 minutes of stabilization. Benzene/adrenaline challenges were performed as follows: the respirator inlet was connected to a 50-ml bubbler half-full with benzene (Fisher Scientific, Fair Lawn, N.J.) so that the inspired air was saturated with benzene vapor. The animal was ventilated with benzene vapor for two minutes. The tidal volume was typically 1 ml/100 g of animal. During the last 30 seconds of benzene ventilation, 10 μg/kg adrenaline solution (in 0.9% NaCl) was injected into the right jugular vein. […] These arrhythmias could be elicited repeatedly. After three control VTs (at −30, −20 and −10 minutes), the test compounds were injected slowly during 30 seconds at a dose of 4 mg/kg i.v., immediately followed by a slow infusion of 12 mg/kg/h for 2 hours. The flow rate during the infusion period was 1 ml/h.
There were 5 rats per test compound and each animal served as its own control. The ability of the different drugs to suppress arrhythmias was tested against repeated benzene/adrenaline challenges at 5, 15, 30,45, 60, 90, 120 (end of drug infusion), 135, 150, 165 and 180 minutes after the i.v. bolus injection. The amplitudes of the systolic arterial pressure and diastolic arterial pressure […] with the help of a pressure-amplitude calibration curve. Heart rate, number of ventricular complexes during the occurrence of VTs and VPBs, and certain ECG parameters (PR, QRS, QT durations and RR cycle lengths in msec) were also recorded and measured manually. At each time-point, 3-5 cycles were measured and the average values were entered into EXCEL Windows 97. The average and standard deviation for the five experimental animals per compound were calculated.

[2] = Half-life in human plasma in vitro; type: in vitro ADME; settings: for half-life in human plasma: 37° C.
Method: Half-life in Human Plasma in Vitro.
Venous blood (60 ml) was collected in heparinized 1 5-ml Vacutainer® tubes from the forearm of five human volunteers. Each tube contained 1,000 units of heparin sodium salt. The blood was immediately centrifuged at 2,000 g for 10 minutes and the plasma was collected. Immediately after collection, the plasma was divided into 2-ml aliquots in borosilicate glass tubes (5-ml capacity) capped with a plastic stopper. The tubes were then equilibrated in a 37° C.-water bath for at least 15 minutes before the test samples were added.
Stock solutions were prepared by dissolving 25 μmoles (about 18 mg) of each of the test compounds in 10 ml of deionized water. To each of the glass tubes containing 2 ml of fresh plasma, equilibrated at 37° C., was added 40 μl of the stock solutions (one test compound per tube). The plasma/stock solutions were then mixed. Samples (250 μl) were collected at time 0 (immediately after mixing test compounds in plasma) and then at 30, 60, 90, 120, 180, 240, and 300 minutes. The test tubes were capped, to avoid concentration due to evaporation, and left in the 37° C. bath during the entire experiment. Each aliquot was immediately introduced into a 1.5-ml microfuge tube containing 20 μl of a 0.01% solution of diethyl paranitrophenylphosphate (paraoxon) in ethanol in order to inhibit esterase activity. The tubes were then capped and vortexed, then kept at −20° C. until analysis. The samples were thawed and mixed with 750 μl of a 0.1% solution of trifluoroacetic acid (TFA) in acetonitrile, vortexed for thorough mixing, and then centrifuged at 12,000 g for 15 minutes. The supernatant was collected for injection in the HPLC system.
The HPLC mobile phase consisted of acetonitrile and water containing 0.1% TFA and 400 mg/L benzyltriethylammoniumchloride (BTEAC) in the following proportions and flow rates: 85% acetonitrile and 15% water at 2.0 ml/min. The detection wavelength was set at 242 nm, and the injected volume was 100 μL. The HPLC peaks were recorded, and the integrated values were plotted against time using the SIGMAPLOT software version 4.0 for WINDOWS. The resulting curves were fitted to a first-order exponential decay equation from which hydrolysis half-lives were calculated.

[3] = benzene vapors and adrenaline challenge

| half-life in human plasma [2] | Compound | PR interval ([1]; anesthetized rats) | QRS interval ([1]; anesthetized rats) | QT interval ([1]; anesthetized rats) | Heart rate (beats/minute) ([1]; anesthetized rats) | Inhibition of tachycardia ([1]; anesthetized rats) | Number of VPB ([1]; anesthetized rats) | Inhibition of VPB ([1]; anesthetized rats) | VPB-inhibiting activity at the end of the washout period [1] | inhibition of the formation of ventricular premature beats (VPB) during drug administration [1, 3] | protection against adrenaline-induced tachyarrhythmia / tachycardia (heart rate) ([1]; comparison of the forms) | metabolism in human plasma [2] | anti-arrhythmic activity (VPB inhibition) of the racemate relative to the enantiomers [1, 3] | effect on QT segment / interval of the EKG (Class-III properties), potency ([1]; anesthetized rats, comparison of the forms) |
| --- | --- | --- | --- | --- | --- | --- | --- | --- | --- | --- | --- | --- | --- | --- |
| 11.7 h | CCN(CC)CCOc1c(I)cc(C(=O)c2c(CC(=O)O[C@H](C)C(C)C)oc3ccccc23)cc1I [Compound R-2055, (R)-(3-Methyl)-2butyl 2-[3-(3,5-diiodo-4-(2-diethylaminoethyloxy)benzoyl)]benzo-furaneacetate] | shorter | longer | no change | lower | longer | lower | longer | still retained part of its activity | totally inhibited |  |  |  |  |
|  | CC[C@H](C)OC(=O)Cc1oc2ccccc2c1C(=O)c1cc(I)c(OCCN(CC)CC)c(I)c1 [ATI-2042] |  |  |  |  |  |  |  |  |  | very good protection | metabolized in human plasma by esterase enzymes |  |  |
|  | CC[C@H](C)OC(=O)Cc1oc2ccccc2c1C(=O)c1cc(I)c(OCCN(CC)CC)c(I)c1 [R,S-2042] |  |  |  |  |  |  |  |  |  | least potent and shortest acting |  | even less active than either the R- or the S-isomer |  |
| 8.8 h | CCN(CC)CCOc1c(I)cc(C(=O)c2c(CC(=O)O[C@@H](C)C(C)C)oc3ccccc23)cc1I [Compound S-2055, (S)-(3-Methyl)-2butyl 2-[3-(3,5-diiodod-4-(2-diethylaminoethyloxy)benzoyl)]benzo-furaneacetate] | shorter | longer | no change | lower | longer | lower | longer | completely inactive |  |  |  |  |  |
|  | CC[C@H](C)OC(=O)Cc1oc2ccccc2c1C(=O)c1cc(I)c(OCCN(CC)CC)c(I)c1 [Compound S-2042, (S)-sec-Butyl2-[3-(3,5-diiodo-4-(2-diethylaminoethyloxy)benzoyl)]benzofurane-acetate] | longer | longer | longer | lower | longer | lower | longer | still retained part of its activity | totally inhibited |  |  |  | most potent and the longest acting |
|  | CCN(CC)CCOc1c(I)cc(C(=O)c2c(CC(=O)OC(C)C(C)C)oc3ccccc23)cc1I (stereo not shown) [ATI-2055] |  |  |  |  |  |  |  |  |  | inhibits the tachycardia | metabolized in human plasma by esterase enzymes |  |  |
|  | CC[C@@H](C)OC(=O)Cc1oc2ccccc2c1C(=O)c1cc(I)c(OCCN(CC)CC)c(I)c1 [Compound R-2042, (R)-sec-Butyl2-[3-(3,5-diiodo-4-(2-diethylaminoethyloxy)benzoyl)]benzofurane-acetate] | shorter | no change | no change | lower | longer | lower | longer | completely inactive |  |  |  |  |  |
